Results: patent US11925629B2, “Heterocyclic inhibitors of ERK1 and ERK2 and their use in the treatment of cancer” (Asana Biosciences, LLC, priority 2015, dated 2024)

Columns and labels:
Assay type in all cases: cell-based, human
[1] = tested on: HT-29 (colorectal carcinoma, B-RafV600E) cells; experiment: Cell proliferation (Alamar Blue) assay, HT-29; conditions: Homo sapiens, HT-29, HT29 cells
Summary of the method: (§1)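 After overnight plating (16-24 h), cells were treated for 72 h with compound dilutions spanning roughly 0.0005 to 10 uM. Proliferation was measured by Alamar Blue fluorescence and IC50 values derived from variable-slope dose-response curves.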

[2] = tested on: HCT116 (colorectal carcinoma, K Ras G13D) cells; experiment: Cell proliferation (Alamar Blue) assay, HCT116; conditions: Homo sapiens, HCT-116, HCT116 cells
Summary of the method: as §1

[3] = tested on: phosphorylation of RSK1(S380) (the downstream target of ERK1/2); experiment: Phospho-RSK1(S380) ELISA assay in HT-29 cells; conditions: Homo sapiens, HT-29, HT29 cells, phospho-RSK1(S380); read-out: Mechanistic Cell Assay RSK1 Phos HT29 IC50
Summary of the method: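 HT-29 colorectal carcinoma cells (B-RafV600E), plated overnight at 37° C./5% CO2, were treated with compound dilutions for 2 h. Lysates were analysed by phospho-RSK1(Ser380) sandwich ELISA with absorbance at 450 nm. IC50 came from a sigmoidal variable-slope dose-response fit.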

IC50 [1] [µM] | IC50 [2] [µM] | IC50 [3] [µM] | SMILES
> 2.5 | > 2.5 | > 2.5 | O=C(Nc1cnn(-c2ccnc(Nc3ccc4c(c3)OCO4)n2)c1)N[C@H](CO)c1cccc(Cl)c1 [Example 21, (S)-1-(1-(2-(benzo[d][1,3]dioxol-5-ylamino)-pyrimidin-4-yl)-1H-pyrazol-4-yl)-3-(1-(3-chlorophenyl)-2-hydroxyethyl) urea]
0.25 to 0.5 | 0.25 to 0.5 | 0.5 to 2.5 | Cc1cnc(Nc2ccc3c(c2)OCO3)nc1-n1ccc(C(=O)NC(CO)c2cccc(Cl)c2)c1 (stereo not drawn) [Example 42, 1-(2-(benzo[d][1,3]dioxol-5-ylamino)-5-methyl-pyrimidin-4-yl)-N-(1-(3-chloro-phenyl)-2-hydroxy-ethyl)-1H-pyrrole-3-carboxamide]
0.5 to 2.5 | > 2.5 | 0.5 to 2.5 | CC[C@H](CO)Nc1ncc(C)c(-n2ccc(C(=O)NC(CO)c3cccc(Cl)c3)c2)n1 (stereo partly drawn) [Example 167, N-(1-(3-chloro-phenyl)-2-hydroxy-ethyl)-1-(2-(((R)-1-hydroxy-butan-2-yl)amino)-5-methyl-pyrimidin-4-yl)-1H-pyrrole-3-carboxamide]
0.25 to 0.5 | 0.5 to 2.5 | 0.1 to 0.25 | Cc1cnc(NC2CCOCC2)nc1-n1cnc(C(=O)N[C@@H](CN)c2cc(F)cc(Cl)c2)c1 [Example 276, (R)-N-(2-amino-1-(3-chloro-5-fluorophenyl)ethyl)-1-(5-methyl-2-((tetrahydro-2H-pyran-4-yl)amino)pyrimidin-4-yl)-1H-imidazole-4-carboxamide]
0.1 to 0.25 | 0.5 to 2.5 | 0.25 to 0.5 | Cc1cnc(Nc2ccc(F)cc2)nc1-n1cnc(C(=O)NC(CO)c2ccccc2)c1 (stereo not drawn) [Example 118, 1-(2-((4-fluoro-phenyl)amino)-5-methyl-pyrimidin-4-yl)-N-(2-hydroxy-1-phenylethyl)-1H-imidazole-4-carboxamide]
≤ 0.1 | ≤ 0.1 | ≤ 0.1 | Cc1cnc(NC2CCC(F)(F)CC2)nc1-n1cnc(C(=O)N[C@H](CN)c2cccc(Cl)c2)c1 [Example 286, (S)-N-(2-amino-1-(3-chlorophenyl)ethyl)-1-(2-((4,4-difluorocyclohexyl)amino)-5-methylpyrmidin-4-yl)-1H-imidazole-4-carboxamide]
> 2.5 | 0.5 to 2.5 | 0.25 to 0.5 | Cc1cnc(Nc2ccc3c(c2)OCO3)nc1-n1ccc(C(=O)NC(CO)c2cccc(Cl)c2F)c1 (stereo not drawn) [Example 70, 1-(2-(benzo[d][1,3]dioxol-5-ylamino)-5-methyl-pyrimidin-4-yl)-N-(1-(3-chloro-2-fluorophenyl)-2-hydroxy-ethyl)-1H-pyrrole-3-carboxamide]
0.5 to 2.5 | > 2.5 | 0.5 to 2.5 | O=C(NC(CO)c1cccc(Cl)c1)c1ccn(-c2cc(Nc3ccccc3)ncc2Cl)c1 (stereo not drawn) [Example 124, 1-(5-chloro-2-(phenyl-amino)pyridin-4-yl)-N-(1-(3-chlorophenyl)-2-hydroxy-ethyl)-1H-pyrrole-3-carboxamide]
≤ 0.1 | 0.1 to 0.25 | ≤ 0.1 | Cc1cnc(Nc2ccc3c(c2)OCO3)nc1-n1ccc(C(=O)N[C@H](CO)c2ccccc2)c1 [Example 60, (S)-1-(2-(benzo[d][1,3]dioxol-5-ylamino)-5-methyl-pyrimidin-4-yl)-N-(2-hydroxy-1-phenylethyl)-1H-pyrrole-3-carboxamide]
≤ 0.1 | 0.5 to 2.5 | 0.1 to 0.25 | Cc1cnc(NC2CCOCC2)nc1-n1cnc(C(=O)NC(CO)c2cccc(Cl)c2)c1 (stereo not drawn) [Compound 201, N-(1-(3-chlorophenyl)-2-hydroxyethyl)-1-(5-methyl-2-((tetrahydro-2H-pyran-4-yl)amino)pyrimidin-4-yl)-1H-imidazole-4-carboxamide]
0.25 to 0.5 | > 2.5 | 0.25 to 0.5 | Cc1cnc(N[C@H]2CCOC2)nc1-n1cnc(C(=O)N[C@H](CO)c2cccc(Cl)c2)c1 [Compound 192, N—((S)-1-(3-Chlorophenyl)-2-hydroxyethyl)-1-(5-methyl-2-(((S)-tetrahydrofuran-3-yl)amino)pyrimidin-4-yl)-1H-imidazole-4-carboxamide]
